Measured values published in ChEMBL document CHEMBL1201862, “PubChem BioAssay data set” (2004).
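Cultured in 96-well plates, cells were exposed to test compound for 48 hours across five concentrations. Here, GI50 denotes the concentration required for 50% inhibition of growth.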 Activity calls are given as the source filed them. No stated cut-off is given here; in the data, active = GI50 up to about 1.1 µM and inactive = higher.

Key:
Assay in all cases: NCI-60 cell line screen, 48 h
Hs-578T = system: Hs-578T
NCI-H226 = system: NCI-H226
EKVX = system: EKVX
OVCAR-4 = system: OVCAR-4
Malme-3M = system: Malme-3M
TK-10 = system: TK-10
SK-MEL-28 = system: SK-MEL-28
SW-620 = system: SW-620
SNB-75 = system: SNB-75
OVCAR-5 = system: OVCAR-5
MDA-N = system: MDA-N
T47D = system: T47D
NCI-H522 = system: NCI-H522
PC-3 = system: PC-3
OVCAR-8 = system: OVCAR-8
UACC-257 = system: UACC-257
786-0 = system: 786-0
HCC 2998 = system: HCC 2998
CAKI-1 = system: CAKI-1
OVCAR-3 = system: OVCAR-3
UO-31 = system: UO-31
COLO 205 = system: COLO 205
BT-549 = system: BT-549
KM12 = system: KM12
CCRF-CEM = system: CCRF-CEM
RPMI-8226 = system: RPMI-8226
MOLT-4 = system: MOLT-4
SK-MEL-5 = system: SK-MEL-5
SF-539 = system: SF-539
HL-60 = system: HL-60
HCT-15 = system: HCT-15
UACC-62 = system: UACC-62
K562 = system: K562
A549 = system: A549
SK-OV-3 = system: SK-OV-3
SNB-19 = system: SNB-19
MDA-MB-435 = system: MDA-MB-435
NCI-H23 = system: NCI-H23
U-251 = system: U-251
A498 = system: A498
ACHN = system: ACHN
HT-29 = system: HT-29
DU-145 = system: DU-145
NCI/ADR-RES = system: NCI/ADR-RES
MDA-MB-231 = system: MDA-MB-231
SF-295 = system: SF-295
MCF7 = system: MCF7
M14 = system: M14
LOX IMVI = system: LOX IMVI
HCT-116 = system: HCT-116
HOP-92 = system: HOP-92
IGROV-1 = system: IGROV-1
SN12C = system: SN12C
HOP-62 = system: HOP-62
NCI-H460 = system: NCI-H460
SF-268 = system: SF-268
SK-MEL-2 = system: SK-MEL-2
RXF 393 = system: RXF 393
SR = system: SR

## O=C1C=CC2(O[C@H](c3ccccc3)[C@@H](c3ccccc3)O2)[C@H](Sc2ccccc2O)C1
Hs-578T
  GI50: 0.836 µM (active)
NCI-H226
  GI50: 2.72 µM (inactive)
EKVX
  GI50: 1.43 µM (inactive)
OVCAR-4
  GI50: 1.08 µM (active)
Malme-3M
  GI50: 0.294 µM (active)
TK-10
  GI50: 0.29 µM (active)
SK-MEL-28
  GI50: 1.36 µM (inactive)
SW-620
  GI50: 0.0824 µM (active)
SNB-75
  GI50: 3.28 µM (inactive)
OVCAR-5
  GI50: 2.35 µM (inactive)
MDA-N
  GI50: 0.316 µM (active)
T47D
  GI50: 0.785 µM (active)
NCI-H522
  GI50: 0.0532 µM (active)
PC-3
  GI50: 0.7 µM (active)
OVCAR-8
  GI50: 0.105 µM (active)
UACC-257
  GI50: 0.658 µM (active)
786-0
  GI50: 0.15 µM (active)
HCC 2998
  GI50: 0.454 µM (active)
CAKI-1
  GI50: 0.34 µM (active)
OVCAR-3
  GI50: 0.418 µM (active)
UO-31
  GI50: 0.665 µM (active)
COLO 205
  GI50: 0.499 µM (active)
BT-549
  GI50: 0.502 µM (active)
KM12
  GI50: 1.98 µM (inactive)
CCRF-CEM
  GI50: < 0.0156 µM (active)
RPMI-8226
  GI50: 0.0424 µM (active)
MOLT-4
  GI50: 0.0286 µM (active)
SK-MEL-5
  GI50: 0.993 µM (active)
SF-539
  GI50: 0.757 µM (active)
HL-60
  GI50: 0.264 µM (active)
HCT-15
  GI50: 0.221 µM
UACC-62
  GI50: 0.841 µM (active)
K562
  GI50: 0.405 µM (active)
A549
  GI50: 2.73 µM (inactive)
SK-OV-3
  GI50: 3.27 µM (inactive)
SNB-19
  GI50: 1.72 µM (inactive)
MDA-MB-435
  GI50: 0.309 µM (active)
NCI-H23
  GI50: 0.708 µM (active)
U-251
  GI50: 0.498 µM (active)
A498
  GI50: 2.24 µM (inactive)
ACHN
  GI50: 0.351 µM (active)
HT-29
  GI50: 0.398 µM (active)
DU-145
  GI50: 1.22 µM (inactive)
NCI/ADR-RES
  GI50: 0.414 µM (active)
MDA-MB-231
  GI50: 0.839 µM (active)
SF-295
  GI50: 6.43 µM (inactive)
MCF7
  GI50: 0.27 µM (active)
M14
  GI50: 0.233 µM (active)
LOX IMVI
  GI50: 0.163 µM (active)
HCT-116
  GI50: 0.122 µM (active)
HOP-92
  GI50: 0.52 µM (active)
IGROV-1
  GI50: 0.281 µM (active)
SN12C
  GI50: 0.204 µM (active)
HOP-62
  GI50: 1.85 µM (inactive)
NCI-H460
  GI50: 2.13 µM (inactive)
SF-268
  GI50: 0.29 µM (active)
SK-MEL-2
  GI50: 2.02 µM (inactive)
RXF 393
  GI50: 0.238 µM (active)

## O=C1/C(=C/c2ccc(OC(=O)c3ccc(Cl)cc3)cc2)CCC/C1=C\c1ccc(OC(=O)c2ccc(Cl)cc2)cc1
Hs-578T
  GI50: 23.8 µM (inactive)
EKVX
  GI50: > 100 µM (inactive)
OVCAR-4
  GI50: > 100 µM (inactive)
TK-10
  GI50: 94.8 µM (inactive)
SK-MEL-28
  GI50: > 100 µM (inactive)
SW-620
  GI50: > 100 µM (inactive)
SNB-75
  GI50: 21 µM (inactive)
OVCAR-5
  GI50: > 100 µM (inactive)
MDA-N
  GI50: > 100 µM (inactive)
T47D
  GI50: > 100 µM (inactive)
SR
  GI50: > 100 µM (inactive)
NCI-H522
  GI50: > 100 µM (inactive)
PC-3
  GI50: > 100 µM (inactive)
OVCAR-8
  GI50: > 100 µM (inactive)
UACC-257
  GI50: > 100 µM (inactive)
786-0
  GI50: 55 µM (inactive)
HCC 2998
  GI50: > 100 µM (inactive)
CAKI-1
  GI50: > 100 µM (inactive)
OVCAR-3
  GI50: > 100 µM (inactive)
UO-31
  GI50: > 100 µM (inactive)
COLO 205
  GI50: > 100 µM (inactive)
BT-549
  GI50: > 100 µM (inactive)
KM12
  GI50: > 100 µM (inactive)
CCRF-CEM
  GI50: > 100 µM (inactive)
RPMI-8226
  GI50: > 100 µM (inactive)
MOLT-4
  GI50: > 100 µM (inactive)
SK-MEL-5
  GI50: > 100 µM (inactive)
SF-539
  GI50: 30 µM (inactive)
HL-60
  GI50: > 100 µM (inactive)
HCT-15
  GI50: > 100 µM
UACC-62
  GI50: > 100 µM (inactive)
A549
  GI50: > 100 µM (inactive)
SNB-19
  GI50: > 100 µM (inactive)
MDA-MB-435
  GI50: > 100 µM (inactive)
NCI-H23
  GI50: > 100 µM (inactive)
U-251
  GI50: 64.3 µM (inactive)
ACHN
  GI50: > 100 µM (inactive)
HT-29
  GI50: > 100 µM (inactive)
DU-145
  GI50: > 100 µM (inactive)
NCI/ADR-RES
  GI50: > 100 µM (inactive)
MDA-MB-231
  GI50: 46.5 µM (inactive)
MCF7
  GI50: > 100 µM (inactive)
M14
  GI50: > 100 µM (inactive)
LOX IMVI
  GI50: > 100 µM (inactive)
HCT-116
  GI50: > 100 µM (inactive)
HOP-92
  GI50: > 100 µM (inactive)
IGROV-1
  GI50: > 100 µM (inactive)
SN12C
  GI50: > 100 µM (inactive)
HOP-62
  GI50: 19.4 µM (inactive)
NCI-H460
  GI50: > 100 µM (inactive)
SF-268
  GI50: > 100 µM (inactive)
SK-MEL-2
  GI50: > 100 µM (inactive)

## Cn1nnc2c3c(N(CCO)CCO)ccnc3ccc21
Hs-578T
  GI50: > 100 µM (inactive)
EKVX
  GI50: > 100 µM (inactive)
OVCAR-4
  GI50: > 100 µM (inactive)
Malme-3M
  GI50: > 100 µM (inactive)
TK-10
  GI50: > 100 µM (inactive)
SW-620
  GI50: > 100 µM (inactive)
SNB-75
  GI50: > 100 µM (inactive)
OVCAR-5
  GI50: > 100 µM (inactive)
MDA-N
  GI50: > 100 µM (inactive)
T47D
  GI50: 59.3 µM (inactive)
SR
  GI50: 19.1 µM (inactive)
NCI-H522
  GI50: > 10 µM (inactive)
PC-3
  GI50: 65.6 µM (inactive)
OVCAR-8
  GI50: > 100 µM (inactive)
UACC-257
  GI50: > 100 µM (inactive)
786-0
  GI50: > 100 µM (inactive)
HCC 2998
  GI50: 29.7 µM (inactive)
CAKI-1
  GI50: > 100 µM (inactive)
OVCAR-3
  GI50: > 100 µM (inactive)
UO-31
  GI50: > 100 µM (inactive)
COLO 205
  GI50: 95.9 µM (inactive)
BT-549
  GI50: > 100 µM (inactive)
KM12
  GI50: 97.5 µM (inactive)
CCRF-CEM
  GI50: > 100 µM (inactive)
MOLT-4
  GI50: 47.4 µM (inactive)
SK-MEL-5
  GI50: > 100 µM (inactive)
SF-539
  GI50: 99.5 µM (inactive)
HL-60
  GI50: > 10 µM (inactive)
HCT-15
  GI50: > 100 µM
UACC-62
  GI50: > 100 µM (inactive)
K562
  GI50: > 100 µM (inactive)
A549
  GI50: > 100 µM (inactive)
SK-OV-3
  GI50: > 100 µM (inactive)
SNB-19
  GI50: 49.1 µM (inactive)
MDA-MB-435
  GI50: > 100 µM (inactive)
NCI-H23
  GI50: 97.9 µM (inactive)
ACHN
  GI50: > 100 µM (inactive)
HT-29
  GI50: 89.3 µM (inactive)
DU-145
  GI50: > 100 µM (inactive)
NCI/ADR-RES
  GI50: > 100 µM (inactive)
MDA-MB-231
  GI50: > 100 µM (inactive)
SF-295
  GI50: > 100 µM (inactive)
MCF7
  GI50: 47.9 µM (inactive)
M14
  GI50: > 100 µM (inactive)
LOX IMVI
  GI50: > 100 µM (inactive)
HCT-116
  GI50: 54.2 µM (inactive)
IGROV-1
  GI50: > 100 µM (inactive)
SN12C
  GI50: > 100 µM (inactive)
HOP-62
  GI50: 47.2 µM (inactive)
NCI-H460
  GI50: 39.9 µM (inactive)
SF-268
  GI50: 87.5 µM (inactive)
SK-MEL-2
  GI50: > 100 µM (inactive)
RXF 393
  GI50: > 100 µM (inactive)
